# From PMC11997890, “In Vivo and In Vitro Pharmacokinetic Studies of a Dual Topoisomerase I/II Inhibitor” (ACS Pharmacology & Translational Science, 2025)
# Assays:
# OvCar8 spheroids [1] = experiment: 3D spheroid cytotoxicity (CellTox Green); type: cell-based; conditions: Homo sapiens, OVCAR-8, 48 h, OvCar8 3D spheroids, read-out: IC50 cell toxicity (CellTox Green)
# Protocol: (§1) Tumor complexity is represented more realistically in 3D spheroid models than in 2D monolayer models.
# (§2) OvCar8 cells (8000/well) were seeded into an Ultra-Low-Attachment plate (Corning #4520) and grown for 96 h. Then, spheroids were treated with the drugs for 48 h. Cell cytotoxicity was assessed using the CellTox Green Cytotoxicity Assay (Promega #G8731) 48 h after treatment with NYONE ([…], 485Ex/520Em). Filters: BFEx/GreenEm (530/43 nm); BlueEx (475/28 nm)/GreenEm (530/43 nm). Viability and apoptosis were determined by RealTime-Glo (460Em) (Promega #G9711) and caspase-Glo 3/7 (565Em) (Promega #G8090) according to the manufacturer’s instructions using a microplate reader (Spark, Tecan). Relative caspase activity: caspase activity divided by the viability (normalized to control). For live-dead staining, cells were grown and treated as described above. Then, 80% of the medium was removed and replaced with propidium iodide (PI) (15 μM), calcein-AM (0.2 μM), and Hoechst 33342 (1.8 μM) in medium for 3 h and imaged by NYONE ([…]). Filters: BFEx/GreenEm(530/43 nm); Hoechst 33342: UVEx (377/50 nm)/BlueEm (452/45 nm); calcein-AM: BlueEx (475/28 nm)/GreenEm (530/43 nm); propidium iodide: LimeEx(562/40 nm)/RedEm(628/32 nm). All experiments were performed in biological triplicates. PBS was used as the negative control, and cisplatin and P8-D6 as the positive control.
# OvCar8 cells = experiment: 2D monolayer apoptosis (caspase activity) assay (ApoLive-Glo); type: cell-based, human; conditions: 48 h
# Protocol: The efficacy of metabolites can have a significant impact on the efficacy of the drug. […] The therapeutic effect of P8-D6 mono and P8-D6 N-oxide was investigated in vitro in human ovarian cancer 2D monolayers and 3D spheroids (Figures and ). 48 h of treatment of the ovarian cancer cell lines (OvCar8, A2780, Igrov-1) with P8-D6 mono and P8-D6 N-oxide was compared to P8-D6 and cisplatin (study preparation scheme supplied as Figure S5). Both metabolites decreased viability in ovarian cancer cells in a 2D monolayer (Figure A, supplied as Figure S3 A,C).
# The human ovarian cancer cell lines OvCar8, Igrov-1, and A2780, purchased from ATCC, were maintained in RPMI1640 medium, including L-glutamine supplemented with 10% fetal bovine serum and 60 IU/mL penicillin–streptomycin. Cells were grown at 37 °C and 5% CO2 in a humidified incubator and subcultivated at a confluency of 70–80%. […]
# For the measurements of viability and apoptosis, cells of approximately 8000/well were seeded in a Corning No. 3903 plate and treated with the corresponding drugs for 48 h. […] Fluorescence and luminescence units were measured by using a microplate multimode reader (Spark, Tecan). Relative caspase activity was calculated as caspase activity divided by viability (normalized to control). […]
# OvCar8 spheroids [2] = experiment: 3D spheroid viability (RealTime-Glo); type: cell-based, human; conditions: for IC50: Homo sapiens, OVCAR-8, OvCar8 3D spheroids, 48 h
# Protocol: as §1, §2
# [3] = In vivo elimination via urine and feces over 24 h; set-up: species or system Sprague–Dawley rats; conditions: for P8-D6 (plus glucuronide) exceeds metabolite in feces: 24 h cumulative
# Protocol: To investigate the elimination of P8-D6 and its phase I and phase II metabolites, urine and feces samples were collected over the course of 24 h and examined.
# To examine possible in vivo phase II metabolites, an enzymatic hydrolysis with glucuronidase/sulfatase from Helix pomatia was performed with both urine and feces samples. […] No sulfate phase II metabolites were observed.
# Effects of the diet were reduced by fasting the rats overnight prior to P8-D6 application. Blood samples were taken at 5, 15, 30, 60, 120, 180, 300, 360, and 600 min after i.v. application or 30, 60, 90, 120, 240, and 600 min after p.o. application. Immediately afterward, the plasma was collected by centrifugation at 2000 g for 10 min. The rats were housed in metabolic cages to collect the urine in specially attached containers. Urine and feces samples were collected every 2 h. The rats were euthanized by CO2 inhalation. The harvested organs (kidney, spleen, lung, liver, and colon) were weighed and submerged in liquid nitrogen. All collected samples were stored at −80 °C until analysis.
# Thirty mg of feces was added to 100 μL of a 0.15 M NaCl solution and stirred in the vortex for 30 s. Afterward, 200 μL of an ice-cold mixture of acetonitrile/methanol (2:1) was added before vortexing again for 30 s. Finally, the suspension was centrifuged at 15000 g for 5 min. 40 μL of the supernatant was injected into the HPLC. The samples from three mice per group were analyzed. Calibration/control samples were prepared the same way with fecal samples collected ahead of the in vivo study. For calibration, the matrix was spiked with a defined concentration of the analyte. Final concentrations ranged from 0 nmol/g to 200 nmol/g. Triple determinations were performed and prepared on each respective day. 50 μL of urine was mixed with 100 μL of an ice-cold mixture of acetonitrile/methanol (2:1) and stirred in the vortex for 5 min. The suspension was centrifuged at 15000 g for 5 min, and 40 μL of the supernatant was injected into the HPLC. Calibration/control samples were prepared the same way with urine samples collected ahead of the in vivo study. For calibration, the matrix was spiked with a defined concentration of the analyte. Final concentrations ranged from 0 to 10 μM. Triple determinations were performed and prepared on each respective day. LoD: 0.02 μM (urine), 0.22 nmol/g (feces); LoQ: 0.06 μM (urine), 0.72 nmol/g (feces). Additionally, to identify phase II metabolites, feces (30 mg) and urine (50 μL) from the in vivo study were incubated with arylsulfatase (at pH 6.2) and glucuronidase (at pH 4.5) from Helix pomatia in acetate buffer for 2 h in a 37 °C water bath. For reference, feces and urine without enzyme and 4-nitrophenylsulfate and 4-nitrophenylglucuronide were incubated as well. All experiments were performed in biological triplicates.
compound,measurement,setting,value
"COc1cc(-c2cc3ccncc3c3nc(OCCN(C)C)c4cnccc4c23)cc(OC)c1OC [P8-D6, 6-(N,N-dimethyl-2-aminoethoxy)-11-(3,4,5-trimethoxyphenyl)-pyrido[3,4-c][1,9]-phenanthroline]",IC50,OvCar8 spheroids [1],1110 nM
CNCCOc1nc2c3cnccc3cc(-c3cc(OC)c(OC)c(OC)c3)c2c2ccncc12 [P8-D6 mono],apoptosis induction,OvCar8 cells,comparable to that of P8-D6
same,IC50,OvCar8 spheroids [1],2220 nM
same,IC50,OvCar8 spheroids [2],240 nM
same,P8-D6 (plus glucuronide) exceeds metabolite in feces,[3],3.7 fold
COc1cc(-c2cc3ccncc3c3[nH]c(=O)c4cnccc4c23)cc(OC)c1OC [P8-DO],detection in urine and feces,[3]; 24 h,absent
COc1cc(-c2cc3ccncc3c3nc(OCC[N+](C)(C)[O-])c4cnccc4c23)cc(OC)c1OC [P8-D6 N-oxide],apoptosis rate higher than cisplatin,OvCar8 cells; 10 μM,3.5 fold
same,efficacy increased compared to cisplatin,OvCar8 spheroids [2]; 3D spheroids,18 fold
same,efficacy reduced compared to P8-D6 mono,OvCar8 spheroids [2]; 3D spheroids,3 fold
same,IC50,OvCar8 spheroids [2],720 nM
same,P8-D6 (plus glucuronide) exceeds metabolite in feces,[3],31 fold
same,concentration in feces,[3]; after 2 h,2.90 nmol/g
same,detectable in feces up to,"[3]; rat, in vivo",up to 8 h
